Assay results taken from patent publication US6531464B1, “Methods for the treatment of neurodegenerative disorders using substituted phenanthridinone derivatives” (Inotek Pharmaceutical Corporation, priority 1999, dated 2003).

Assays:
Assay type in all cases: cell-based
PARS [1] = biological target: T1, PARS (Mus musculus, UniProt P11103); assay: High glucose induced PARS activation in murine lung microvascular endothelial cells; parameters: endogenous in cells; host or cells: primary lung microvascular endothelial cells from wild-type mice; details: 30 mM glucose, 6 hours; PJ34 100 nM-3 μM, MnTBAP 100 μM, carboxy-PTIO 300 μM, L-NMA 3 mM, L-NAME 3 mM
Procedure: In brief, lung microvascular endothelial cells were isolated from wild-type (+/+) and PARS knockout (−/−) mice. Cells were maintained in F12/DMEM (1:1) medium supplemented with endothelial cell growth supplement (100 μg/l heparin and 10% fetal calf serum).
PARS activation was measured in endothelial cells seeded in 6 well tissue culture plates pre-coated with endothelial cell attachment factor (Sigma). Medium was replaced by regular- (see above) or FCS-free HUVEC medium containing 5 mM D-glucose 12 h before the experiment. […] After 10 min, cells were scraped, transferred into Eppendorf tubes and the reaction was stopped by trichloroacetic acid (TCA). Pellets were washed three times in 5% TCA and then solubilized in 500 μl 2% SDS/0.1 N NaOH at 37° C. Contents of the tubes were added to 7 ml ScintiSafe Plus scintillation liquid and radioactivity was measured in a liquid scintillation counter (Wallac, Gaithersburg, Md.). Activity was normalized for protein content.
Target sequence in this assay (P11103 whole entry): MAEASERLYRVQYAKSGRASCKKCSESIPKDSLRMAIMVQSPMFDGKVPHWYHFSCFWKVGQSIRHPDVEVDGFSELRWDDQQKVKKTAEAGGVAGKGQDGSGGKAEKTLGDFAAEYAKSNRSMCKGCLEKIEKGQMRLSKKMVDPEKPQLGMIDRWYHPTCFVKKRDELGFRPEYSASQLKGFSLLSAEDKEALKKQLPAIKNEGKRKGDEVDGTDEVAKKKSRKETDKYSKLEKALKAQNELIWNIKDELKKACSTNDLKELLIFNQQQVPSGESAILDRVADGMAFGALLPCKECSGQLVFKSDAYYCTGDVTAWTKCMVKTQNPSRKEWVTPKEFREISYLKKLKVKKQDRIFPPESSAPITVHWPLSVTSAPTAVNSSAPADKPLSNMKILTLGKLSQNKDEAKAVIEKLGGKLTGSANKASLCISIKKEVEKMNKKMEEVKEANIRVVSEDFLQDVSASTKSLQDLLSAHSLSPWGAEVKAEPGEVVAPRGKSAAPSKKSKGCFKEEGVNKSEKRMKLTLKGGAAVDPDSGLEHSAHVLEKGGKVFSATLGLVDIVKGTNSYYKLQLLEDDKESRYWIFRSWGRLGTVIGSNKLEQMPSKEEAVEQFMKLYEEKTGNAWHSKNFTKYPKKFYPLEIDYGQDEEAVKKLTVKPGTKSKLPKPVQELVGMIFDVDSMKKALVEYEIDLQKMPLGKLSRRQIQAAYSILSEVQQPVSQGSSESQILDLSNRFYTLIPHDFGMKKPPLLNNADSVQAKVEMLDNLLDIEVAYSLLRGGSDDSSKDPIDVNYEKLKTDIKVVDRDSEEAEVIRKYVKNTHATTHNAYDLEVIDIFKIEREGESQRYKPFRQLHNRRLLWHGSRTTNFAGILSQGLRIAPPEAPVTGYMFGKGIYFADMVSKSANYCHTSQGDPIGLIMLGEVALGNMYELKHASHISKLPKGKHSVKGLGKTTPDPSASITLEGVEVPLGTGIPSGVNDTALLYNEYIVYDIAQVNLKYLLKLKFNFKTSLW

thymocytes = assay: Peroxynitrite-stimulated thymocytes: cell viability; details: for EC50: Thymocyte, peroxynitrite 30 μM, 30 min pretreatment 0.1 to 30 μM, measured at 6 h, mean±SEM n=3-6, read-out: Enhancement of cell viability (thymocyte); for oxidant-induced suppression of the viability of the cells (in words): isolated thymocytes exposed to peroxynitrite or hydrogen peroxide
Procedure: (§1) The half-maximal inhibitory effect (in μM) of various PJ compounds was assessed under a variety of conditions in immunostimulated J774 macrophages and in peroxynitrite-stimulated thymocytes. Macrophages or thymocytes were first treated with a chosen PJ compound for 30 min at a concentration ranging from 0.1 to 30 μM. The cells were then immunostimulated with LPS (10 μg/ml) or treated with peroxynitrite (30 μM). MIP production in the macrophages was measured at 3 h, TNF and nitric oxide were measured at 24 h, cell viability in the macrophages were measured at 24 h. PARS activation and cell death in thymocytes were measured at 6 h. Measurements of mediator production, PARS activation and cell death were essentially as described in Németh, et al., Eur J Pharmacol 339:215-221, 1997 and Virág and Szabó, Br J Pharmacol, 126: 769-777, 1999. Results in Table 2 are shown as EC50 values (half maximal inhibition of mediator production or restoration of cell viability; in μM): [mean±SEM of n=3-6 determinations].

nitric oxide (nitrite) = assay: LPS-stimulated J774 macrophages: nitric oxide production measured as nitrite; details: for production of nitric oxide, measured as nitrite (in words): J774 macrophages exposed to LPS; for EC50: Mus musculus, J774, read-out: Inhibition of Nitrite (J774)
Description: (§2) In in vitro studies, J774 macrophages were exposed to bacterial lipopolysaccharide (LPS), to induce pro-inflammatory mediator production and cytotoxicity. […] This assay (the LPS-stimulated macrophage) represents an in vitro model of an inflammatory situation. Agents that block inflammatory mediator production in this assay are expected to have anti-inflammatory or immunosuppressive effects in inflammatory or immune diseases.
as §1

MIP-2 = assay: LPS-stimulated J774 macrophages: MIP-2 production; details: for production of the chemokine MIP-2 (in words): J774 macrophages exposed to LPS; for EC50: Mus musculus, J774, LPS 10 μg/ml, 30 min pretreatment 0.1 to 30 μM, measured at 3 h, mean±SEM n=3-6, read-out: Inhibition of MIP-2 (J774)
Description: as §2, §1

MIP-1α = assay: LPS-stimulated J774 macrophages: MIP-1α production; details: for production of the chemokine MIP-1α (in words): J774 macrophages exposed to LPS; for EC50: Mus musculus, J774, LPS 10 μg/ml, 30 min pretreatment 0.1 to 30 μM, measured at 3 h, mean±SEM n=3-6, read-out: Inhibition of MIP-1α (J774)
Description: as §2, §1

PARS [2] = biological target: T1, PARS; assay: Peroxynitrite-stimulated thymocytes: PARS activation; details: isolated thymocytes exposed to peroxynitrite or hydrogen peroxide
Procedure: The half-maximal inhibitory effect (in μM) of various PJ compounds was assessed under a variety of conditions in immunostimulated J774 macrophages and in peroxynitrite-stimulated thymocytes. Macrophages or thymocytes were first treated with a chosen PJ compound for 30 min at a concentration ranging from 0.1 to 30 μM. The cells were then immunostimulated with LPS (10 μg/ml) or treated with peroxynitrite (30 μM). MIP production in the macrophages was measured at 3 h, TNF and nitric oxide were measured at 24 h, cell viability in the macrophages were measured at 24 h. PARS activation and cell death in thymocytes were measured at 6 h.
Target sequence in this assay (P11103 2-1013): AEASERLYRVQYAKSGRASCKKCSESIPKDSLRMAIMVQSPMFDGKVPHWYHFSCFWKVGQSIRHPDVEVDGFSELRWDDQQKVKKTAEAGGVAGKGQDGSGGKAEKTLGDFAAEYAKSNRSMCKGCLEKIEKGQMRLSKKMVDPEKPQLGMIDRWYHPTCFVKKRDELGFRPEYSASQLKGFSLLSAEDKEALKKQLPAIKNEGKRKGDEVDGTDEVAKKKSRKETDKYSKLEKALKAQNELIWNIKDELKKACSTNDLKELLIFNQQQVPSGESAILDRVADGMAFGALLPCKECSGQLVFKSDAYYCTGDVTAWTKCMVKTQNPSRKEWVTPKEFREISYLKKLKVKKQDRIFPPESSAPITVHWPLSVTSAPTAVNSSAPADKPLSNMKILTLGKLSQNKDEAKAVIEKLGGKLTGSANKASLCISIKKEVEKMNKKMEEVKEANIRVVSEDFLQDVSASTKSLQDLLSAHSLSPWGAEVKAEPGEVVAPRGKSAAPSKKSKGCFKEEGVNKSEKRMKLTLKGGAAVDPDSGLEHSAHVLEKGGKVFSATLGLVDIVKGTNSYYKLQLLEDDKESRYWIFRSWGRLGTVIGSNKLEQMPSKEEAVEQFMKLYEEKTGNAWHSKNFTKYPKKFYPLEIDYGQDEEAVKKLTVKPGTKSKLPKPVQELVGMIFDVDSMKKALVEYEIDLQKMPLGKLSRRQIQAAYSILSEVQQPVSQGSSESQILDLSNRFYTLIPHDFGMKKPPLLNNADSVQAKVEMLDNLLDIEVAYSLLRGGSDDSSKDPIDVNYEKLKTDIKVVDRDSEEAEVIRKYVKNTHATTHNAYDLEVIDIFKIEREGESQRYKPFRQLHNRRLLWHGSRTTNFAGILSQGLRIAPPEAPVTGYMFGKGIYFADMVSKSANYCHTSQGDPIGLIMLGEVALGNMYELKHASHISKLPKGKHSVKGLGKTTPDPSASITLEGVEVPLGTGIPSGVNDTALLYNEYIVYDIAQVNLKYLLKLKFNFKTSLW

J774 macrophages = assay: LPS-stimulated J774 macrophages: cell viability; details: for viability of the cells suppressed by LPS exposure (in words): J774 macrophages exposed to LPS; for EC50: Mus musculus, J774, LPS 10 μg/ml, 30 min pretreatment 0.1 to 30 μM, measured at 24 h, mean±SEM n=3-6, read-out: Enhancement of cell Viability (J774)
Description: as §2, §1

TNF-α = assay: LPS-stimulated J774 macrophages: TNF-α production; details: for production of the pro-inflammatory cytokine TNF-α (in words): J774 macrophages exposed to LPS; for EC50: Mus musculus, J774, LPS 10 μg/ml, 30 min pretreatment 0.1 to 30 μM, measured at 24 h, mean±SEM n=3-6, read-out: Inhibition of TNF-α (J774)
Description: as §2, §1

[3] = LPS 10 μg/ml, 30 min pretreatment 0.1 to 30 μM, measured at 24 h, mean±SEM n=3-6

Row | Structure (SMILES) | high glucose induced PARP/PARS activation (PARS [1]) | EC50 (thymocytes) | oxidant-induced suppression of the viability of the cells (in words) (thymocytes) | production of nitric oxide, measured as nitrite (in words) (nitric oxide (nitrite)) | Inhibition of Nitrite (J774) (nitric oxide (nitrite); [3]) | production of the chemokine MIP-2 (in words) (MIP-2) | EC50 (MIP-2) | production of the chemokine MIP-1α (in words) (MIP-1α) | EC50 (MIP-1α) | activation of PARS (in words) (PARS [2]) | viability of the cells suppressed by LPS exposure (in words) (J774 macrophages) | EC50 (J774 macrophages) | production of the pro-inflammatory cytokine TNF-α (in words) (TNF-α) | EC50 (TNF-α) | EC50 (nitric oxide (nitrite); [3])
1 | COC(=O)[C@@H](N)CCCNC(=N)N[N+](=O)[O-] [L-NAME, N^G-nitro-L-arginine methyl ester] | significantly reduced | – | – | – | – | – | – | – | – | – | – | – | – | – | –
2 | CCN(CC)CC(=O)Nc1ccc2[nH]c(=O)c3ccccc3c2c1 [PJ44] | – | 0.2 ± 0.1 µM | prevented | inhibited | No effect | inhibited | 22.4 ± 1.2 µM | inhibited | 10.2 ± 0.95 µM | inhibited | restored the viability | 16.2 ± 1.9 µM | inhibited | 11.1 ± 0.67 µM | –
3 | O=C(CN1CCOCC1)Nc1ccc2[nH]c(=O)c3ccccc3c2c1 [PJ38] | – | 0.4 ± 0.2 µM | prevented | inhibited | – | inhibited | 14.9 ± 1.3 µM | inhibited | 11.3 ± 1.4 µM | inhibited | restored the viability | 22.1 ± 2.7 µM | inhibited | 6.2 ± 0.42 µM | 20.2 ± 1.5 µM
4 | CNC(=N)NCCC[C@H](N)C(=O)O [L-NMA, N^G-methyl-L-arginine] | significantly reduced | – | – | – | – | – | – | – | – | – | – | – | – | – | –
5 | CC1(C)N([O])C(c2ccc(C(=O)O)cc2)=[N+]([O-])C1(C)C [carboxy-PTIO] | attenuated | – | – | – | – | – | – | – | – | – | – | – | – | – | –
6 | CN1CCN(CC(=O)Nc2ccc3[nH]c(=O)c4ccccc4c3c2)CC1 [PJ46] | – | 1.3 ± 0.3 µM | prevented | inhibited | – | inhibited | > 30 µM | inhibited | > 30 µM | inhibited | restored the viability | > 30 µM | inhibited | 9.2 ± 0.88 µM | > 30 µM
7 | O=C(CN1CCCCC1)Nc1ccc2[nH]c(=O)c3ccccc3c2c1 [PJ36] | – | 0.3 ± 0.1 µM | prevented | inhibited | – | inhibited | 21.2 ± 2.7 µM | inhibited | 15.2 ± 2.1 µM | inhibited | restored the viability | 20.2 ± 2.3 µM | inhibited | 11.2 ± 1.1 µM | 25.4 ± 2.9 µM
8 | O=C(O)c1ccc(/C2=C3\C=CC(=N3)/C(c3ccc(C(=O)O)cc3)=c3/cc/c4[n]3[Mn]([Cl])[n]3c2ccc3/C(c2ccc(C(=O)O)cc2)=C2/C=CC(=N2)\C=4c2ccc(C(=O)O)cc2)cc1 [MnTBAP] | attenuated | – | – | – | – | – | – | – | – | – | – | – | – | – | –
